According to patent publication US7776918B2, “Remedy for viral disease” (Chugai Seiyaku Kabushiki Kaisha, priority 2003, dated 2010):

Tests used:
[1] = Cytotoxicity test (Cell Counting Kit-8); type: cell-based; conditions: human, Firefly luciferase HCV replicon cells (3-1); Cell Counting Kit-8, absorbance 450 nm, after 3 days culture with compound
Method: (§1) Firefly luciferase HCV replicon cells (3-1) were suspended in Dulbecco's MEM (Gibco Cat. No. 10569-010) containing 5% fetal calf serum (Hyclone Cat. No. SH30071.03) and inoculated into a 96-well plate at 5000 cells/well followed by culturing overnight at 5% CO2 and 37° C. After about 20 hours, 10 μl of a diluted compound was added to each well followed by additional culturing for 3 days. Two series of the assay plates were prepared, and assay was conducted using white plates for one series while using clear plates for the other series. Following completion of culturing, the white plates were used with the Steady-Glo Luciferase Assay System (Promega Cat. No. E2520). More specifically, 100 μl of reagent was placed in each well and after mixing 3 to 4 times with a pipette and allowing to stand for 5 minutes, luminescence was measured with the 1450 MicroBeta TRILUX (WALLAC). The value in the absence of cell addition was used to indicate the background value, and that value was subtracted from all values to calculate the IC50 value (concentration resulting in 50% inhibition) of the drug based on 0% inhibition for the value obtained in the absence of drug addition.
(§2) The Cell Counting Kit-8 (Dojindo Cat. No. CK04) was used for measurement of cytotoxicity. More specifically, 10 μl of the Cell Counting Kit-8 was added to the clear plates followed by incubating at 37° C. for 30 to 60 minutes. Absorbance at a wavelength of 450 nm and control wavelength of 630 nm was measured with a 96-well plate reader. The value obtained in the absence of cell addition was used as a background value, and that value was subtracted from all values to calculate the CC50 value (concentration resulting in 50% cell inhibition) of the drug based on 0% inhibition for the value obtained in the absence of drug addition.

[2] = system: Firefly luciferase HCV replicon cells (3-1); assay: Replicon assay (firefly luciferase HCV replicon); type: cell-based; conditions: Hepatitis C virus, 72 h; luciferase luminescence after 3 days culture with compound, Huh7-derived replicon cells
Method: A construct was prepared in which luciferase gene derived from firefly was inserted as a reporter gene in HCV-RNA to assay the number of copies of HCV-RNA. The luciferase gene was inserted in a form that fuses with the neomycin resistance gene directly below IRES (Internal Ribosome Entry Site) of HCV gene in accordance with the method of Krieger, et al. (J. Virol. 75: 4614). After synthesizing the RNA in vitro, it was introduced into Huh7 cells by electroporation followed by isolation as G418 resistant clone.
as §1

[3] = system: Cryptococcus neoformans; conditions: known from WO98/56755; cited from earlier work
[4] = system: Candida albicans; conditions: known from WO98/56755; cited from earlier work
[5] = system: immune reactions; conditions: known from WO98/56755; cited from earlier work
[6] = system: Firefly luciferase HCV replicon cells (3-1); assay: Cytotoxicity test (Cell Counting Kit-8); type: cell-based; conditions: Cell Counting Kit-8, absorbance 450 nm, after 3 days culture with compound
Method: as §1, §2

**Q.** For CCCCCCCCCCCCCC/C=C/[C@H](C(=O)N[C@@H](Cc1ccc(OCC=C(C)C)cc1)C(=O)O)[C@@](O)(CC(=O)O)C(=O)O (mixture of isomers) [Compound 13], which CC50 at 3 days [1] is on record?
**A.** The CC50 at 3 days was over 50000 nM.

**Q.** What about the IC50 [2] of the same compound?
**A.** The IC50 was 100 nM.

**Q.** What does the source list for CCCCCCCC(=O)CCCCCC/C=C/[C@H](C(=O)N[C@@H](Cc1ccc(OCC=C(C)C)cc1)C(=O)O)[C@@](O)(CC(=O)O)C(=O)O [Compound 1]?
**A.** CC50 at 3 days [1]: > 5000 nM; antimicrobial activity against Cryptococcus neoformans [3]: antimicrobial activity; IC50 [2]: 2 nM; antimicrobial activity against Candida albicans [4]: antimicrobial activity; effects that inhibit immune reactions [5]: inhibit immune reactions

**Q.** Which CC50 at 3 days [1] does the source give for CCCCCCCC(=O)CCCCCC/C=C/[C@H](C(=O)N[C@@H](Cc1ccc(OCC=C(C)C)cc1)C(=O)O)[C@@](O)(CC(=O)OC)C(=O)O [Compound 2] here?
**A.** Its CC50 at 3 days is over 1000 nM.

**Q.** And the IC50 [2]?
**A.** The IC50 was 128 nM.

**Q.** Which CC50 at 3 days [1] does the source give for CCCCCCCC(=O)CCCCCC/C=C/[C@H](C(=O)N[C@@H](Cc1ccc(OCC=C(C)C)cc1)C(=O)OC)[C@@](O)(CC(=O)OC)C(=O)O [Compound 3] here?
**A.** The CC50 at 3 days was over 1000 nM.

**Q.** What about the IC50 [2] of the same compound?
**A.** The IC50 was 76 nM.

**Q.** Which CC50 at 3 days [1] does the source give for CCCCCCC(O)C(=O)CCCCCC/C=C/[C@H](C(=O)N[C@@H](Cc1ccc(O)cc1)C(=O)O)[C@@](O)(CC(=O)O)C(=O)O (stereo partly shown) [Compound 4] here?
**A.** The CC50 at 3 days was over 1000 nM.

**Q.** What about the IC50 [2] of the same compound?
**A.** Its IC50 is 103 nM.

**Q.** For CCCCCCCC(=O)CCCCCC/C=C/[C@H](C(=O)N[C@@H](Cc1c[nH]c2ccccc12)C(=O)O)[C@@](O)(CC(=O)O)C(=O)O [Compound 5], which CC50 at 3 days [1] is on record?
**A.** Its CC50 at 3 days is over 1000 nM.

**Q.** What about the IC50 [2] of the same compound?
**A.** Its IC50 is 82 nM.

**Q.** For CCCCCCC(O)C(=O)CCCCCC/C=C/[C@H](C(=O)N[C@@H](Cc1ccc(OCC=C(C)C)cc1)C(=O)O)[C@@](O)(CC(=O)O)C(=O)O (stereo partly shown) [Compound 6], which CC50 at 3 days [1] is on record?
**A.** Its CC50 at 3 days is over 1000 nM.

**Q.** And the IC50 [2]?
**A.** The IC50 was 7 nM.

**Q.** What does the source list for CCCCCCCC(=O)CCCCCC/C=C/[C@H](C(=O)N[C@@H](Cc1ccc(OCCC(C)C)cc1)C(=O)O)[C@@](O)(CC(=O)O)C(=O)O [Compound 7]?
**A.** CC50 at 3 days [1]: > 5000 nM; IC50 [2]: 2 nM

**Q.** For CCCCCCCC(O)CCCCCC/C=C/[C@H](C(=O)N[C@@H](Cc1ccc(OCC=C(C)C)cc1)C(=O)O)[C@@](O)(CC(=O)O)C(=O)O (stereo partly shown) [Compound 8], which CC50 at 3 days [1] is on record?
**A.** Its CC50 at 3 days is over 5000 nM.

**Q.** What about the IC50 [2] of the same compound?
**A.** The IC50 was 5 nM.

**Q.** With CCCCCCCC(=O)CCCCCC/C=C/[C@H](C(=O)N[C@@H](Cc1ccc(O)cc1)C(=O)O)[C@@](O)(CC(=O)O)C(=O)O [Compound 9] as the compound, how does the CC50 at 3 days [1] read?
**A.** The CC50 at 3 days was over 5000 nM.

**Q.** What about the IC50 [2] of the same compound?
**A.** Its IC50 is 20 nM.

**Q.** What does the source list for CCCCCCCC(=O)CCCCCCCC[C@H](C(=O)N[C@@H](Cc1ccc(O)cc1)C(=O)O)[C@@](O)(CC(=O)O)C(=O)O [Compound 10]?
**A.** CC50 at 3 days [1]: > 50000 nM; IC50 [2]: 245 nM

**Q.** For CCCCCCCC(=O)CCCCCC/C=C/[C@H](C(=O)N[C@@H](Cc1ccc(OCC=C(C)C)cc1)C(N)=O)[C@@](O)(CC(N)=O)C(N)=O [Compound 11], which CC50 at 3 days [1] is on record?
**A.** The CC50 at 3 days was over 5000 nM.

**Q.** What about the IC50 [2] of the same compound?
**A.** Its IC50 is 262 nM.

**Q.** For CCCCCCCC(=O)CCCCCCCC[C@H](C(=O)N[C@@H](Cc1ccc(OCCC(C)C)cc1)C(=O)O)[C@@](O)(CC(=O)O)C(=O)O [Compound 12], which CC50 at 3 days [1] is on record?
**A.** The CC50 at 3 days was over 5000 nM.

**Q.** What about the IC50 [2] of the same compound?
**A.** Its IC50 is 72 nM.

**Q.** Which CC50 at 3 days [1] does the source give for CCCCCCC/C(CCCCCC/C=C/[C@H](C(=O)N[C@@H](Cc1ccc(OCC=C(C)C)cc1)C(=O)O)[C@@](O)(CC(=O)O)C(=O)O)=N/OCCN [Compound 14] here?
**A.** Its CC50 at 3 days is 22000 nM.

**Q.** And the IC50 [2]?
**A.** Its IC50 is 20 nM.

**Q.** Which CC50 at 3 days [1] does the source give for CCCCCCCC(CCCCCC/C=C/[C@H](C(=O)N[C@@H](Cc1ccc(OCC=C(C)C)cc1)C(=O)O)[C@@](O)(CC(=O)O)C(=O)O)=NOC [Compound 15] here?
**A.** The CC50 at 3 days was over 50000 nM.

**Q.** What about the IC50 [2] of the same compound?
**A.** The IC50 was 20 nM.

**Q.** With CC#CCOc1ccc(C[C@H](NC(=O)[C@@H](/C=C/CCCCCCC(=O)CCCCCCC)[C@@](O)(CC(=O)O)C(=O)O)C(=O)O)cc1 [Compound 21] as the compound, how does the CC50 [6] read?
**A.** The CC50 was over 5000 nM.

**Q.** For CCCCCCCC(=O)CCCCCC/C=C/[C@H](C(=O)N[C@@H](Cc1ccc(OC)c(OC)c1)C(=O)O)[C@@](O)(CC(=O)O)C(=O)O [Compound 22], which CC50 [6] is on record?
**A.** Its CC50 is over 1000 nM.

**Q.** Which results are given for CCCCCCCC(=O)CCCCCC/C=C/[C@H](C(=O)N[C@@H](Cc1ccc(OCCCC)cc1)C(=O)O)[C@@](O)(CC(=O)O)C(=O)O [Compound 23]?
**A.** CC50 at 3 days [1]: > 1000 nM; IC50 [2]: 1 nM

**Q.** What does the source list for CCCCCCCC(=O)CCCCCC/C=C/[C@H](C(=O)N[C@@H](Cc1ccc(OCCC)cc1)C(=O)O)[C@@](O)(CC(=O)O)C(=O)O [Compound 24]?
**A.** CC50 at 3 days [1]: > 1000 nM; IC50 [2]: 2 nM

**Q.** For C=CCOc1ccc(C[C@H](NC(=O)[C@@H](/C=C/CCCCCCC(=O)CCCCCCC)[C@@](O)(CC(=O)O)C(=O)O)C(=O)O)cc1 [Compound 25], which CC50 at 3 days [1] is on record?
**A.** The CC50 at 3 days was over 1000 nM.

**Q.** And the IC50 [2]?
**A.** The IC50 was 1 nM.

**Q.** Which CC50 at 3 days [1] does the source give for CCCCCCCC(=O)CCCCCC/C=C/[C@H](C(=O)N[C@@H](Cc1ccc(OC)cc1)C(=O)O)[C@@](O)(CC(=O)O)C(=O)O [Compound 26] here?
**A.** Its CC50 at 3 days is over 1000 nM.

**Q.** And the IC50 [2]?
**A.** The IC50 was 3 nM.
